Test results reported in patent US10266552B2, “Condensed heterocyclic compound having cycloalkylpyridyl group or salt thereof, agricultural and horticultural insecticide comprising the compound, and method for using the insecticide” (Nihon Nohyaku Co., Ltd., priority 2015, dated 2019).

Columns and labels:
Type in all cases: in vivo
Laodelphax striatella = experiment: Test of insecticidal effect on Laodelphax striatella (rice seedling dip); conditions: Laodelphax striatellus, 192 h, rice seedlings dipped for 30 seconds, 3rd-instar larvae, 8 days after the inoculation, read-out: insecticidal effect (corrected mortality rate), activity level
From the text: Test of Insecticidal Effect on Laodelphax striatella
The condensed heterocyclic compounds represented by the general formula (1) of the present invention or salts thereof were separately dispersed in water and diluted to 500 ppm, and rice plant seedlings (variety: Nihonbare) were dipped in the agrochemical dispersions for 30 seconds. After air-dried, each seedling was put into a separate glass test tube and inoculated with ten 3rd-instar larvae of Laodelphax striatella, and then the glass test tubes were capped with cotton plugs. At 8 days after the inoculation, the numbers of surviving larvae and dead larvae were counted, the corrected mortality rate was calculated according to the formula shown below, and the insecticidal effect was evaluated according to the criterion of Test Example 1. Corrected mortality rate (%)=100×(Survival rate in a non-treatment plot−Survival rate in a treatment plot)/Survival rate in a non-treatment plot

Myzus persicae = experiment: Test of control effect on Myzus persicae (foliar application, potted Chinese cabbage); conditions: 144 h, foliar application to potted Chinese cabbage plants, 6 days after the foliar application, read-out: control effect (control rate), activity level
From the text: Test of Control Effect on Myzus persicae Chinese cabbage plants were planted in plastic pots (diameter: 8 cm, height: 8 cm), green peach aphids (Myzus persicae) were propagated on the plants, and the number of surviving green peach aphids in each pot was counted. The condensed heterocyclic compounds represented by the general formula (1) of the present invention or salts thereof were separately dispersed in water and diluted to 500 ppm, and the agrochemical dispersions were applied to the foliage of the potted Chinese cabbage plants. After the plants were air-dried, the pots were kept in a greenhouse. At 6 days after the foliar application, the number of surviving green peach aphids on the Chinese cabbage plant in each pot was counted, the control rate was calculated according to the formula shown below, and the control effect was evaluated according to the criterion shown below. Control rate=100−{(T×Ca)/(Ta×C)}×100 Ta: the number of survivors before the foliar application in a treatment plot T: the number of survivors after the foliar application in a treatment plot Ca: the number of survivors before the foliar application in a non-treatment plot C: the number of survivors after the foliar application in a non-treatment plot Criterion A: the control rate is 100%. B: the control rate is 90 to 99%. C: the control rate is 80 to 89%. D: the control rate is 50 to 79%.

Plutella xylostella = experiment: Test of insecticidal effect on Plutella xylostella (dip of Chinese cabbage seedlings with laid eggs); conditions: 144 h, seedlings with laid eggs dipped for about 30 seconds, 25° C., 6 days after the dip treatment, read-out: insecticidal effect (corrected mortality rate), activity level
From the text: Test of Insecticidal Effect on Plutella xylostella
Adults of Plutella xylostella were released onto Chinese cabbage seedlings and allowed to lay eggs thereon. At 2 days after the release of the adults, the Chinese cabbage seedlings with laid eggs were dipped for about 30 seconds in agrochemical dispersions diluted to 500 ppm, each of which contained a different condensed heterocyclic compound represented by the general formula (1) of the present invention as an active ingredient. The seedlings were air-dried and then kept in a thermostatic chamber at 25° C. At 6 days after the dip treatment, the number of hatched larvae per plot was counted, the mortality rate was calculated according to the formula shown below, and the insecticidal effect was evaluated according to the criterion of Test Example 1. This test was conducted in triplicate using 10 adults of Plutella xylostella per plot. Corrected mortality rate (%)=100×(Number of hatched larvae in a non-treatment plot−Number of hatched larvae in a treatment plot)/Number of hatched larvae in a non-treatment plot

CCS(=O)(=O)c1cc(C2CC2)cnc1-c1nc2cc(C(F)(F)F)ccc2s1 [Compound 9-12, 2-(3-ethylsulfonyl-5-cyclopropylpyridin-2-yl)-5-trifluoromethyl-benzothiazole]
mortality at 500 ppm (Laodelphax striatella): 100% | pest or weed control at 500 ppm (Myzus persicae): 100% | mortality at 500 ppm (Plutella xylostella): 100%

CCSc1cc(C2CC2)cnc1-c1nc2cc(C(F)(F)F)ccc2s1 [Compound 9-10, 2-(3-ethylthio-5-cyclopropylpyridin-2-yl)-5-trifluoromethyl-benzothiazole]
mortality at 500 ppm (Laodelphax striatella): 100% | pest or weed control at 500 ppm (Myzus persicae): 100% | mortality at 500 ppm (Plutella xylostella): 100%

CCSc1cc(C2CC2)cnc1-c1nc2cc(C(F)(F)F)ccc2n1C [Compound 7-13, 2-(3-ethylthio-5-cyclopropylpyridin-2-yl)-1-methyl-5-trifluoromethyl-1H-benzimidazole]
mortality at 500 ppm (Laodelphax striatella): 100% | pest or weed control at 500 ppm (Myzus persicae): 100% | mortality at 500 ppm (Plutella xylostella): 100%

CCS(=O)(=O)c1cc(C2CC2C(=O)OC)cnc1-c1nc2cc(C(F)(F)F)cnc2n1C (centres unmarked) [Compound 11-82]
mortality at 500 ppm (Laodelphax striatella): 100% | pest or weed control at 500 ppm (Myzus persicae): 100%

CCS(=O)(=O)c1cc(C2CC2)cnc1-c1nc2cc(C(F)(F)F)cnc2o1 [Compound 3-15, 2-(3-ethylsulfonyl-5-cyclopropylpyridin-2-yl)-5-trifluoromethyl-oxazolo[5,4-b]pyridine]
mortality at 500 ppm (Laodelphax striatella): 100% | pest or weed control at 500 ppm (Myzus persicae): 100% | mortality at 500 ppm (Plutella xylostella): 100%

CCS(=O)(=O)c1cc(C2(C(=O)OC)CC2)cnc1-c1nc2cc(C(F)(F)F)cnc2n1C [Compound 11-2]
mortality at 500 ppm (Laodelphax striatella): 100% | pest or weed control at 500 ppm (Myzus persicae): 100% | mortality at 500 ppm (Plutella xylostella): 100%

CCSc1cc(C2CC2)cnc1-c1nc2cc(C(F)(F)F)cnc2s1 [Compound 5-13]
mortality at 500 ppm (Laodelphax striatella): 100% | pest or weed control at 500 ppm (Myzus persicae): 100% | mortality at 500 ppm (Plutella xylostella): 100%

CCS(=O)(=O)c1cc(C2(C(N)=O)CC2)cnc1-c1nc2cc(C(F)(F)F)cnc2n1C [Compound 11-6]
mortality at 500 ppm (Laodelphax striatella): 100% | pest or weed control at 500 ppm (Myzus persicae): 100% | mortality at 500 ppm (Plutella xylostella): 100%

CCS(=O)(=O)c1cc(C2CC2)cnc1-c1nc2cc(C(F)(F)F)cnc2n1C [Compound 1-15]
mortality at 500 ppm (Laodelphax striatella): 100% | pest or weed control at 500 ppm (Myzus persicae): 100% | mortality at 500 ppm (Plutella xylostella): 100%

CCS(=O)(=O)c1cc(C2CC2)cnc1-c1nc2cc(C(F)(F)F)cnc2s1 [Compound 5-15]
mortality at 500 ppm (Laodelphax striatella): 100% | pest or weed control at 500 ppm (Myzus persicae): 100% | mortality at 500 ppm (Plutella xylostella): 100%

CCS(=O)(=O)c1cc(C2(C#N)CC2)cnc1-c1nc2cc(C(F)(F)F)cnc2n1C [Compound 11-13]
mortality at 500 ppm (Laodelphax striatella): 100% | pest or weed control at 500 ppm (Myzus persicae): 100% | mortality at 500 ppm (Plutella xylostella): 100%

CC[S+]([O-])c1cc(C2CC2)cnc1-c1nc2cc(C(F)(F)F)ccc2n1C (centres unmarked) [Compound 7-14, 2-(3-ethylsulfinyl-5-cyclopropylpyridin-2-yl)-1-methyl-5-trifluoromethyl-1H-benzimidazole]
mortality at 500 ppm (Laodelphax striatella): 100% | pest or weed control at 500 ppm (Myzus persicae): 100% | mortality at 500 ppm (Plutella xylostella): 100%

CCS(=O)(=O)c1cc(C2CC2)cnc1-c1nc2cc(C(F)(F)F)ccc2n1C [Compound 7-15, 2-(3-ethylsulfonyl-5-cyclopropylpyridin-2-yl)-1-methyl-5-trifluoromethyl-1H-benzimidazole]
mortality at 500 ppm (Laodelphax striatella): 100% | pest or weed control at 500 ppm (Myzus persicae): 100% | mortality at 500 ppm (Plutella xylostella): 100%

CCS(=O)(=O)c1cc(C2(C(=O)O)CC2)cnc1-c1nc2cc(C(F)(F)F)cnc2n1C [Compound 11-1]
mortality at 500 ppm (Laodelphax striatella): 100% | pest or weed control at 500 ppm (Myzus persicae): 100% | mortality at 500 ppm (Plutella xylostella): 100%

CCSc1cc(C2CC2)cnc1-c1nc2cc(C(F)(F)F)cnc2o1 [Compound 3-13, 2-(3-ethylthio-5-cyclopropylpyridin-2-yl)-5-trifluoromethyl-oxazolo[5,4-b]pyridine]
mortality at 500 ppm (Laodelphax striatella): 100% | pest or weed control at 500 ppm (Myzus persicae): 100% | mortality at 500 ppm (Plutella xylostella): 100%
